System: infarct size after ischemia reperfusion (LAD ligation)
Experiment: LAD ligation/reperfusion, infarct size as percent area at risk after CoQ10 pretreatment
Format: in vivo
Conditions: WT mice; CoQ10 ip 1 mg/kg/day for 3 days prior to ischemia reperfusion; compared to WT controls; p=0.15
Description: FIG. 4 is a plot comparing infarct size as a percentage of AAR in WT and ApoAI-null mice given saline or Coenzyme Q10 daily for 3 days prior to ischemia induced by 30 minutes of LAD ligation and 3 hours of reperfusion (data represent mean±SD; n=4-6 per group; *p<0.0001 compared to strain-matched NT control).
All animal protocols were approved by the Animal Research Committee, and all animals were housed in the Association for Assessment and Accreditation of Laboratory Animal Care International-approved animal facility of the Cleveland Clinic. Anterior wall MI (AMT) was performed as recently described (Askari, A. T. et al., J. Exp. Med. 197:615-624, 2003). Briefly, AMI was induced in eight 20- to 25-g male littermate wild-type (C57BL/6J), ApoA1 heterozygote (ApoA1^+/−) or knockout (ApoA1^−/−) mice by ligation of the LAD 7-0 Prolene. Blanching and dysfunction of the anterior wall verified LAD ligation. After 30 minutes of LAD ligation, microsurgical scissors were used to cut the knot in the ligature at the level of the myocardium, and animals subsequently underwent reperfusion for 3 hours. […] Animals were kept on ventilator for the entire 3 hours of reperfusion and subsequently analyzed for area at risk and infarct size using 1% solution of 2,3,5-triphenyltetrazolium chloride (TTC) at 37° C. […]

Compound: COC1=C(OC)C(=O)C(C/C=C(\C)CC/C=C(\C)CC/C=C(\C)CC/C=C(\C)CC/C=C(\C)CC/C=C(\C)CC/C=C(\C)CC/C=C(\C)CC/C=C(\C)CCC=C(C)C)=C(C)C1=O [CoQ10, Coenzyme Q10]
- decrease in IS/% AAR: non-significant trend

Source: patent US9739791B2, “Methods for predicting and treating myocardial damage” (THE CLEVELAND CLINIC FOUNDATION, priority 2010, dated 2017)
